Source: patent US20070036809A1, “Tolerance-induced targeted antibody production” (priority 2003, published 2007)

Columns and labels:
BMRPA1 cells = test: NNK exposure of BMRPA1 cells, morphology; type: cell-based, rat; conditions: one 16 hour exposure
Procedure: NNK Exposures: All preparations of the carcinogen-containing media were made in a separate laboratory within a NCI-designed and certified chemical hood using prescribed protective measures. NNK (American Health Foundation, N.Y.) was prepared as a stock solution of 10 mg NNK in PBS and added to FBS-free cRPMI to make final concentrations of 100, 50, 10, 5, and 1 μg/ml. BMRPA1 cells at passage 36 (p36) were seeded at 10^5/60 mm TCDs and allowed to grow for 6 d. At this time the medium was removed, and the cells were washed 2× with prewarmed (37° C.), FBS-free cRPMI before they were treated with FBS-free cRPMI (4 ml/TCD) containing the different concentrations of NNK. A 6th set of TCDs containing BMRPA1 cells was incubated in FBS-free cRPMI without NNK and was used as controls. The eight TCDs used for each of the six sets of different culture conditions were returned to the 37° C. and 95% air-5% CO2 incubator. After 16 h, the NNK-containing medium was removed from all TCDs and the cells were washed 3× with PBS followed by addition of fresh cRPMI-10% FBS (4 ml/TCD), and the incubation continued. Control cultures without NNK were processed in parallel. The cells were fed every 2 d by replacing ½ of the spent medium with fresh cRPMI-10% FBS. At full confluency the cells were collected from all TCDs, the cells in each group were pooled, and passaged at 2×10^4 into fresh TCDs.

Procedure for BMRPA1 antigens: Immunosubtractive Hyperimmunization Protocol (ISHIP): A mixture of live (10^6) and paraformaldehyde fixed and washed (10^6) cells was used for each immunization intraperitoneally (ip). Six female Balb/c mice (age˜12 wks) (Harlan-Sprague Dawley Labs, St. Louis) were used: two mice were injected 4× during standard immunizations with BMRPA1 cells. […] The other two immunosuppressed mice were injected weekly three more times with transformed BMRPA1.NNK cells, and a week later the mice were hyperimmunized with 5 additional injections of transformed BMRPA1.NNK cells in the 10 days preceding fusion (ISHIP mice). Sera were obtained from all mice within a week after the indicated number of immunizations.
Cell-Enzyme ImmunoAssay (Cell-EIA): BMRPA1 and BMRPA1.NNK cells were seeded in TCPs (96-wells) at 3×10^4/well with 0.1 mL cRPMI-10% FBS. The cells were allowed to adhere for 24 h, air dried, and stored under vacuum at RT. The cells were then rehydrated with PBS-1% BSA, followed by addition of either hybridoma supernatants or two fold serial dilutions of mouse sera to each well for 45 min at room temperature (RT). After washing with PBS-BSA, HRP-GαMIgG (1:100 in PBS-1% BSA) was added to each well for 45 min at RT. […] The substrate color development was assessed at OD490nm with a microplate reader (Bio-Rad 3550). […]

Row | SMILES | Phenotypical changes of neoplastic transformation (BMRPA1 cells; 1 μg/ml NNK) | Cytotoxic changes (BMRPA1 cells; 5 and 1 μg NNK/mL) | Appearance of phenotypical changes indicative of neoplastic transformation (BMRPA1 cells; 100, 50, 10 μg NNK/ml) | Cytotoxic changes (BMRPA1 cells; larger concentrations of NNK (100, 50, 10 μg NNK/mL), serum free medium) | Immunosuppression of antibody titer to BMRPA1 cells (Cell-EIA with sera) (BMRPA1 antigens; 3 injections of BMRPA1 cells, then cyclophosphamide i.p. for 5 days, 60 μg/day/g body weight) | Staining of rat pancreatic tissue by sera of BMRPA1 immunized, cyclophosphamide-treated mice (BMRPA1 antigens; immunohistochemistry on rat pancreas)
1 | CN(CCCC(=O)c1cccnc1)N=O [NNK, 4-(methyl-nitrosamino)-1-(3-pyridyl)-1 butanone] | phenotypical changes characteristic of neoplastic transformation but at a slower rate, over several weeks | observed considerably less | within a week | cytotoxic changes consisting of poorly attached, degenerating, dying cells, and slowed cell growth | – | –
2 | O=P1(N(CCCl)CCCl)NCCCO1 (stereo not drawn) [cyclophosphamide] | – | – | – | – | strong immunosuppression | virtually no staining
